These results are taken from US20260167622A1, “PAN-KRAS DEGRADING AGENT, AND PREPARATION METHOD THEREFOR AND USE THEREOF” (LEADINGTAC PHARMACEUTICAL (SHAOXING) CO., LTD., priority 2022, published 2026).

For this experiment, the system named is KRAS G12D mutant human metastatic pancreatic cancer cell AsPc-1. Briefly: 3D cell proliferation inhibition assay, AsPc-1. The experiment is classed as cell-based. The settings on record: ASPC1, 168 h, 3D culture, 7 days, CTG. An excerpt:
Test Example 6: 3D Cell Proliferation Inhibition Assay
The inhibitory effects of the compounds on 3D cell proliferation were investigated on KRAS G12C mutant human non-small cell lung cancer cell NCI-H358, KRAS G12D mutant human lung cancer cell A427, KRAS G12D mutant human gastric cancer cell AGS, KRAS G12D mutant human metastatic pancreatic cancer cell AsPc-1, KRAS G12V mutant human lung squamous carcinoma cell SW900, KRAS G12V mutant human colorectal cancer cell SW620, KRAS G13D mutant human colorectal cancer epithelial cell DLD-1, and KRAS WT human gastric cancer cell MKN1. The specific procedures were as follows:
10 μL of each compound solution diluted in a gradient was added to corresponding wells of a 96-well low-adsorption microplate (PerkinElmer), so that the final concentrations of the test compounds in the reaction system were in a range of 10000-0.026 nM. The final concentration of DMSO was 0.2%. Then 90 µL of cells were correspondingly seeded into each well to achieve a cell density of 5×10^2 cells/well (the cell density of SW900 was 5×10^3 cells/well, and the cell density of MKN1 was 1×10^3 cells/well). In addition to test wells for the test compounds, both a DMSO control well and a medium control well were set, with the DMSO control well containing DMSO and cells and the medium well containing only a medium. After the sample loading, the 96-well low-adsorption microplate was incubated in an incubator at 37° C. with […] for 7 days. After 7 days, the microplate was taken out, and 100 μL of CTG reagent (Promega) was added to each well. The plate was incubated at room temperature for 60 m and read on a microplate reader EnVision by the chemiluminescence program. The inhibition rates of the compounds at each concentration were calculated using the formula for the percentage inhibition of cell proliferation: inhibition rate 00=(mean value of DMSO control group−single concentration reading value of compound)/(mean value of DMSO control group−mean value of medium control group)×100. Then non-linear curve fillings for logarithmic concentration-inhibition rate were performed by GraphPad Prism 8, and the IC50 values of the compounds were obtained (Table 6).

The structures appear in SMILES notation.

As to `C#Cc1c(F)ccc2cc(O)cc(-c3ncc4c(N5CCCC(C)(N)C5)nc(OCC5(CN6CCN(CC7CCC8(CC7)CCN(C(=O)c7ccc(C)c(N9CCC(=O)NC9=O)c7)CC8)CC6)CC5)nc4c3F)c12` (stereo not shown) [Example 166, 1-(5-(9-((4-((1-(((4-(3-amino-3-methylpiperidin-1-yl)-7-(8-ethynyl-7-fluoro-3-hydroxynaphthalen-1-yl)-8-fluoropyrido[4,3-d]pyrimidin-2-yl)oxy)methyl)cyclopropyl)methyl)piperazin-1-yl)methyl)-3-azaspiro[5.5]undecane-3-carbonyl)-2-methylphenyl)dihydropyrimidine-2,4(1H,3H)-dione], half-maximal inhibition (IC50) was put at 523 nM.

As usually defined, the IC50 is the concentration needed to halve the response being measured. Read a low IC50 as greater potency in that assay.
